Assay results from patent publication US20250154467A1, “CREATION OF VASCULARIZED BIOLOGICAL STRUCTURES” (The Board of Trustees of the Leland Stanford Junior …, priority 2022, published 2025).
Entries after “also recorded” stand apart in the source; their conditions may differ. Read-outs that look alike come from different tables or passages of the source.

How the values were obtained:
hESC-3R micropatterns [1] = test: CHIR concentrations and VEGF addition on CM and EC co-differentiation over 14 days; type: cell-based, human; conditions: day 14
RUES-GLR hESCs = test: Germ layer formation under different CHIR concentrations; type: cell-based, human; conditions: CHIR 4 uM added at day 0, day 6
hESC-3R colony = test: 3D cVO creation in 96-well plate with a range of CHIR; type: cell-based, human; conditions: 3D cVOs, day 14, CHIR 6.0-8.5 uM
Method: For 3D cVO creation, two methods were used. In the first method, stencils with single 2 mm center holes were placed in 24-well plates with Softwell Easy Coat hydrogels with a custom stiffness of 16 […]) and hESC-3R cells were micropatterned as described above. In the second method, to increase throughput and eliminate using stencils, each well of a black 96-well plate ([…]-32EA, Sigma-Aldrich) was freshly coated with a central, 2 uL drop of Matrigel (1:400 dilution) and was then seeded with 125,000 hESC-3R cells. Cells were allowed to attach and grow for 2-4 days forming a single, homogenous, round colony in the center of each well. The same differentiation protocol for 2D cVOs was then used to create 3D cVOs from days 0-14, using a range of CHIR from 6.0-8.5 μM.

hESC-3R micropatterns [2] = test: cVO differentiation screening, 34 conditions, CM/EC/SMC total fluorescence area; type: cell-based, human
Text: Cardiac Vascularized Organoid (cVO) Differentiation. See FIG. 3C, FIG. 10H-I, and Table 1 for an overview of our thirty-four (34) cardiovascular (CV) differentiation screening conditions to produce cVOs. The Control groups utilized only CHIR, FGF2, and IWR. To begin, hPSCs suspended in single cells were transferred to Matrigel-coated non-micropatterned or micropatterned surfaces as described above and differentiated in RPMI-1640 media (61870, Thermo Fisher Scientific) supplemented with B27 without insulin (A1895601, Thermo Fisher Scientific) (RB-I). The CV differentiation was based on the baseline differentiation described previously to promote CM differentiation and contained several additional small molecules and growth factors to promote simultaneous endothelial and smooth muscle cell co-differentiation. On Day 0, for primarily mesoderm induction, basal medium was supplemented with 4 or 5 μM CHIR99021 (CHIR) (S2924, Selleck Chemicals) and 5 ng/ml FGF-2 (FGF2) (100-18B, PeproTech). On Day 3, for CM induction, 5 uM IWR-1 (IWR) (S7086, Selleck Chemicals) was added. On Days 5-16, to simultaneously induce endothelial cell vasculogenesis and angiogenesis along with the cardiomyocyte differentiation, we added combinations of 50 ng/ml VEGF-165 (VEGF) (Days 5, 7, 9, 11, 13) (100-20, PeproTech); 5 ng/ml FGF-2 (FGF2) (Days 7, 9, 11, 13) (100-18B, PeproTech); 10 uM SB431542 (SB) (Days 7, 9, or 11) ([…], Selleck Chemicals); 50 ng/ml Angiopoietin-2 (ANG2) (Days 5 and 7) (130-07, PeproTech); 50 ng/ml Angiopoietin-1 (ANG1) (Days 9 and 11) (130-06, PeproTech); and select components of the VascuLife® VEGF LifeFactors® Kit (Aghajanian et al., 2016) (LS-1020, Lifeline Cell Technology) (Days 5, 7, 9, 11, and 13) (5 ng/ml EGF, 15 ng/ml IGF-1, 50 μg/mL ascorbic acid, 0.75 U/mL heparin sulfate, […]). On Days 7-16, to simultaneously induce smooth muscle cell differentiation with cardiomyocyte and endothelial cell differentiation, we added 2.5 or 10 ng/ml PDGF-BB (PDGFBB) (Days 7, 9, 11, 13) (100-14B, PeproTech) and 0.5 or 2 ng/ml TGF-β1 (TGFβ) (Days 7, 9, 11, 13) (100-21C, PeproTech). To increase throughput, screening time-lapse microscopy was performed with the Cytation 5 Cell Imaging Multi-Mode Reader (BioTek). Five (5) forty-eight (48)-well plates (204 out of 240 wells) were imaged over the differentiation time-period. The plates contained a single 2 mm circular micropattern of undifferentiated hESC-3R cells in the center of each well subjected to thirty-four (34) differentiation conditions, with nominally 4-6 replicates per condition, imaged at six (6) timepoints (Days 3, 5, 8, 10, 12, and 16 (D3-D16)). After all raw images were acquired, image analysis was performed with Gen5 v3.05 software (BioTek). Images in each channel and each 4×4 array were stitched to create a single mosaic image; 4728 mosaics were created, and each mosaic image was downsized by 25%. Next, image processing of each mosaic was performed to reduce background independently in each channel. Finally, for each channel, thresholding was performed on fluorescence intensity along with minimum and maximum object size to calculate the total Phase, CFP, GFP, and mOrange total fluorescence area in each well for each condition at each timepoint. Each mosaic image was computationally masked by a circular “plug” to eliminate fluorescence artifact created by well edges. For each condition, values for replicate samples were summed, and the mean and standard deviation were calculated.

cVO EC formation = conditions: for time course of detrimental effect on EC formation (regression coefficients): multiple linear regression fit, 16 days; for effect on vascularization of cVOs: pathway inhibitors, summary; for EC location within cVO: day 16
cVOs = test: Beat rate with isoproterenol treatment, cVOs; type: cell-based, human; conditions: isoproterenol 0, 1, and 10 uM; n=16
Text: Cardiac Vascularized Organoid (cVO) Differentiation. See FIG. 3C, FIG. 10H-I, and Table 1 for an overview of our thirty-four (34) cardiovascular (CV) differentiation screening conditions to produce cVOs. The Control groups utilized only CHIR, FGF2, and IWR. To begin, hPSCs suspended in single cells were transferred to Matrigel-coated non-micropatterned or micropatterned surfaces as described above and differentiated in RPMI-1640 media (61870, Thermo Fisher Scientific) supplemented with B27 without insulin (A1895601, Thermo Fisher Scientific) (RB-I). The CV differentiation was based on the baseline differentiation described previously to promote CM differentiation and contained several additional small molecules and growth factors to promote simultaneous endothelial and smooth muscle cell co-differentiation. […] We assessed the contractility of Control and cVO groups in a similar manner as we have previously described. Contraction of beating CMs within the micropatterns was recorded with high-resolution motion capture tracking (75 fps) using the SI8000 Live Cell Motion Imaging System (Sony Corporation). […] Functional parameters were assessed from the averaged contraction-relaxation waveforms from 10 sec recordings, using the S[…] […] The software was used to detect motion vectors and quantify beating rate, contraction velocity, relaxation velocity, and contraction-relaxation peak interval of cVOs.

[3] = tested on: Controls (baseline cardiomyocyte differentiation); test: Beat rate with isoproterenol treatment, Controls; type: cell-based, human; conditions: isoproterenol 0, 1, and 10 uM; n=15
Text: Baseline Cardiomyocyte (CM) Differentiation. For baseline cardiomyocyte (CM) differentiation (Control group), hPSCs were transferred to Matrigel-coated non-micropatterned and micropatterned surfaces as described above and differentiated in RPMI-1640 media (61870, Thermo Fisher Scientific) supplemented with B27 without insulin (A1895601, Gibco/Thermo Fisher Scientific). Our baseline differentiation method was based on a small molecule-based monolayer method (Lian et al., 2012; Burridge et al., 2014). Briefly, on the first day (Day 0) of differentiation, basal medium was supplemented with 4, 5, or 6 μM CHIR99021 (CHIR) (S2924, Selleck Chemicals) and 5 ng/mL FGF-2 (FGF2) (100-18B, PeproTech). On Day 2, the medium was replaced with basal medium containing B27 without insulin. […] We assessed the contractility of Control and cVO groups in a similar manner as we have previously described. Contraction of beating CMs within the micropatterns was recorded with high-resolution motion capture tracking (75 fps) using the SI8000 Live Cell Motion Imaging System (Sony Corporation). […] Functional parameters were assessed from the averaged contraction-relaxation waveforms from 10 sec recordings, using the S[…] […] The software was used to detect motion vectors and quantify beating rate, contraction velocity, relaxation velocity, and contraction-relaxation peak interval of cVOs.

[4] = CHIR 4 vs 5 uM for each condition, day 12

Cc1cnc(-c2cnc(NCCNc3ccc(C#N)cn3)nc2-c2ccc(Cl)cc2Cl)[nH]1 [CHIR, 6-[[2-[[4-(2,4-Dichlorophenyl)-5-(5-methyl-1H-imidazol-2-yl)-2-pyrimidinyl]amino]ethyl]amino]-3-pyridinecarbonitrile]
CHIR concentration giving the most CMs (hESC-3R micropatterns [1]; CHIR+FGF2+IWR (Control), CHIR 3, 4, and 5 uM): 5 µM
CHIR concentration giving the most CMs and ECs (hESC-3R micropatterns [1]; CHIR+FGF2+IWR+VEGF 50 ng/ml): 5 µM
germ layer formation in micropatterned RUES-GLR hESCs (RUES-GLR hESCs): central BRA+ mesodermal area was surrounded by a SOX17+ endodermal ring and no SOX2 ectodermal expression; also recorded: BRA+ mesodermal central area surrounded by a SOX17+ endodermal ring, with no SOX2 ectodermal expression
CHIR concentration giving the most CMs and ECs (hESC-3R colony): 7.0 µM
CHIR concentration giving the most CMs, ECs, and SMCs (hESC-3R micropatterns [2]; 34 screening conditions, CHIR 4 uM vs 5 uM): 5 µM
CHIR concentration giving the most CMs (GFP total fluorescence area) (hESC-3R micropatterns [2]; [4]): 5 µM
CHIR concentration giving the most ECs (mOr total fluorescence area) (hESC-3R micropatterns [2]; [4]): 5 µM
CHIR concentration giving the most SMCs (CFP total fluorescence area) (hESC-3R micropatterns [2]; [4]): 5 µM

C[C@H](NC(=O)Cc1cc(F)cc(F)c1)C(=O)N[C@H](C(=O)OC(C)(C)C)c1ccccc1 [DAPT]
difference in cVO EC formation between concentrations (cVO EC formation; DAPT 1 vs 10 uM): no significant (ns) difference
time course of detrimental effect on EC formation (regression coefficients) (cVO EC formation): decays over time
effect on vascularization of cVOs (cVO EC formation): general disruptive effects on vascularization

Cl.Cl.c1cc(-c2cnn3cc(-c4ccc(OCCN5CCCCC5)cc4)cnc23)ccn1 [Dorsomorphin, 6-[4-[2-(1-Piperidinyl)ethoxy]phenyl]-3-(4-pyridinyl)-pyrazolo[1,5-a]pyrimidine dihydrochloride]
difference in cVO EC formation between concentrations (cVO EC formation; Dorsomorphin 0.1 vs 1.0 uM): no significant (ns) difference
time course of detrimental effect on EC formation (regression coefficients) (cVO EC formation): exponentially increases
effect on vascularization of cVOs (cVO EC formation): general disruptive effects on vascularization

CC(C)NCC(O)c1ccc(O)c(O)c1 (stereo not shown) [isoproterenol]
Beat rate of cVOs (cVOs): significantly increased; also recorded: increases
Beat rate of Controls [3]: significantly increased; also recorded: increases

Angiostatin
EC location within cVO (cVO EC formation; Angiostatin 0.1 ug/mL): ECs congregated in the center area of starting micropatterns
EC location within cVO (cVO EC formation; Angiostatin 1.0 ug/mL): ECs congregated at the periphery of starting micropatterns
difference in cVO EC formation between concentrations (cVO EC formation; Angiostatin 0.1 vs 1.0 ug/mL): no significant (ns) difference
effect on vascularization of cVOs (cVO EC formation): general disruptive effects on vascularization

VEGF
EC formation (mOr) compared to Control, FGF2 alone and SB alone (hESC-3R micropatterns [2]; VEGF alone, 50 ng/ml, day 12): most ECs
effect on CM formation (GFP) (hESC-3R micropatterns [2]; VEGF alone, 50 ng/ml, day 12): no statistical (ns) effect
